Consider 28 molecules from patent US12065436B2, “Cardiac sarcomere inhibitors” (Cytokinetics, Inc., priority 2018, dated 2024).

In the experiment the target is bovine cardiac myofibrils (full-length cardiac myosin ATPase in the native sarcomere) (Bos taurus (Bovine), UniProt Q9BE39). Kind of experiment: Skinned bovine cardiac myofibril ATPase assay (PK/LDH-coupled). It counts as biochemical. The settings on record: Ca2+ activating to 75% of maximal rate; for CDMF75 IC15: concentration giving 15% inhibition; for IC50: read-out: CDMF75 IC50. In outline:
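Inhibition of steady-state ATPase read at 340 nm through a PK/LDH-coupled NADH system (0.5 mM NADH, 1.5 mM PEP). Detergent-skinned bovine cardiac myofibrils, 1 mg/mL, were tested at pH 6.8 in PIPES/MgCl2 with 50 μM ATP and calcium adjusted to give pCa50 or pCa75 activation.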

Some results are limits rather than exact numbers.

bovine cardiac myofibrils (full-length cardiac myosin ATPase in the native sarcomere), sequence (Q9BE39 whole entry): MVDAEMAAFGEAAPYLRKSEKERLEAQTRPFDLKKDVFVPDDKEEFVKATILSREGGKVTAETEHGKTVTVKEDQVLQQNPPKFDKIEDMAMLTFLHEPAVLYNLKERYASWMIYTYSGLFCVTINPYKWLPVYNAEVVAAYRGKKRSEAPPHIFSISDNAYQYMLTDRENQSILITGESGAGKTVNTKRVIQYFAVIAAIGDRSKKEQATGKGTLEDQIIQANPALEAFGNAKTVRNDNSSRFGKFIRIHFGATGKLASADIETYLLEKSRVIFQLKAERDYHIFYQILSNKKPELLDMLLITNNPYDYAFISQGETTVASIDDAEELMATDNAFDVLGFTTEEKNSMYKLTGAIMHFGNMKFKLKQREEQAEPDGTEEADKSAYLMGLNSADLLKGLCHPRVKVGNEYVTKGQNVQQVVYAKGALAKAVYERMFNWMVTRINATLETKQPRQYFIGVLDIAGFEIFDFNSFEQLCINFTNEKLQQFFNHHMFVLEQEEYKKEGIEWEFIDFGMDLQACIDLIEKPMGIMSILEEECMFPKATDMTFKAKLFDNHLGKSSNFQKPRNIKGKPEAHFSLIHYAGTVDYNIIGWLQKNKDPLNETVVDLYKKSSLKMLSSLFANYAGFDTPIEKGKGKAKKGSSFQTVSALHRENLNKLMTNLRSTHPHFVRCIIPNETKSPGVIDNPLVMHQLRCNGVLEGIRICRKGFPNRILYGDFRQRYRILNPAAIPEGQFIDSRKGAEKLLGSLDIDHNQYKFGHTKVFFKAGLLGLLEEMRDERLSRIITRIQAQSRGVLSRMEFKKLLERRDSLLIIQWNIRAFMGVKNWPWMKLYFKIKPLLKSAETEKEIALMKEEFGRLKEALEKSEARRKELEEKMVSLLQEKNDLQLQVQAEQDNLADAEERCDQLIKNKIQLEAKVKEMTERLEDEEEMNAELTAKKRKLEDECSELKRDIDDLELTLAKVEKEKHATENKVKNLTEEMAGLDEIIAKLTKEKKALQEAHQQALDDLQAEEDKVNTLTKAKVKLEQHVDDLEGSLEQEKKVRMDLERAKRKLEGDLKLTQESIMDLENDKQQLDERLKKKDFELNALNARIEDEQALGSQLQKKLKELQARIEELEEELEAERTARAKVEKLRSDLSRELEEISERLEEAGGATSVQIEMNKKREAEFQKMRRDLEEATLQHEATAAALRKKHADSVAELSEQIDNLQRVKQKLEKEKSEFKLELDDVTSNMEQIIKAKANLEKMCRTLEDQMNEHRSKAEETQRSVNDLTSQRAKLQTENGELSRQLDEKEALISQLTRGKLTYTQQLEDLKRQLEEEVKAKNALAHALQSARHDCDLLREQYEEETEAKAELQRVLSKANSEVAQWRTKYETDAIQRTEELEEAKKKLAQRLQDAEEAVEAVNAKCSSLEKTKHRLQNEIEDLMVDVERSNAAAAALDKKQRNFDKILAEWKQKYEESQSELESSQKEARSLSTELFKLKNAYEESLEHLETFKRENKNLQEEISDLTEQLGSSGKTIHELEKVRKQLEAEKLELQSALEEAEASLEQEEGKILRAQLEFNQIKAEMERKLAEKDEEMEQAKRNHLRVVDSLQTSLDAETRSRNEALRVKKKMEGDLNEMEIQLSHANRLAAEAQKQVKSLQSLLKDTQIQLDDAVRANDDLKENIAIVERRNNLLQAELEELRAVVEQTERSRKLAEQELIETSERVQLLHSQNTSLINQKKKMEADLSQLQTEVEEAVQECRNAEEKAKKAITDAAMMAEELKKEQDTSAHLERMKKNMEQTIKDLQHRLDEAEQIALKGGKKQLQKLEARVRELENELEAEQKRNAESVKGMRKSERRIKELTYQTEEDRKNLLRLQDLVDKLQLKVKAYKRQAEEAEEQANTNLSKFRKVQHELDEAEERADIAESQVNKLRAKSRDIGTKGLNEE
bovine cardiac myofibrils (full-length cardiac myosin ATPase in the native sarcomere), sequence (P85100 whole entry partner): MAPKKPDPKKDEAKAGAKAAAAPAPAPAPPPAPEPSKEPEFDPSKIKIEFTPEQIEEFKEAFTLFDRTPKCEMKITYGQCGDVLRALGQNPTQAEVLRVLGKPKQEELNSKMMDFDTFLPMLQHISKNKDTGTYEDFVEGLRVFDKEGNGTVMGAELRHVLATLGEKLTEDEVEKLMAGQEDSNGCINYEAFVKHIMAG
bovine cardiac myofibrils (full-length cardiac myosin ATPase in the native sarcomere), sequence (Q3SZE5 whole entry partner): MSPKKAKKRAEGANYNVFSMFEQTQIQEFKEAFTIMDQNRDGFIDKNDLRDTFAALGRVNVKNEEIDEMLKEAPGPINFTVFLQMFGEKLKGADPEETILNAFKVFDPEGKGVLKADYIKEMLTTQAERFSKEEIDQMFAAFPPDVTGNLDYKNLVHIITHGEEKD

On to `Cc1noc(C(=O)NC2CCc3cc(-c4noc(C(F)F)n4)ccc32)n1` (centres unmarked) [Compound 127, N-(5-(5-(difluoromethyl)-1,2,4-oxadiazol-3-yl)-2,3-dihydro-1H-inden-1-yl)-3-methyl-1,2,4-oxadiazole-5-carboxamide], for which the “CDMF75 IC15” value is 1.7 µM and the half-inhibitory concentration (IC50) (commonly the point on the concentration scale where inhibition reaches its midpoint) came to 7.7 µM.
The corresponding values for `Cc1c(C(=O)NC2COc3cc(-c4noc(C(F)F)n4)ccc32)cnn1C` (centres unmarked) [Compound 209, N-(6-(5-(difluoromethyl)-1,2,4-oxadiazol-3-yl)-2,3-dihydrobenzofuran-3-yl)-1,5-dimethyl-1H-pyrazole-4-carboxamide] are 0.9 µM and 3.3 µM.
The like results for `COCCn1cc(C(=O)N[C@@H]2CCc3cc(-c4noc(C5CC5)n4)ccc32)cn1` [Compound 510, (R)-N-(5-(5-cyclopropyl-1,2,4-oxadiazol-3-yl)-2,3-dihydro-1H-inden-1-yl)-1-(2-methoxyethyl)-1H-pyrazole-4-carboxamide] were, in that order, 1.9 µM and 7.9 µM.
The like results for `CCc1nc(-c2ccc3c(c2)CC[C@H]3NC(=O)c2cc(C)on2)no1` [Compound 569, (R)-N-(5-(5-ethyl-1,2,4-oxadiazol-3-yl)-2,3-dihydro-1H-inden-1-yl)-5-methylisoxazole-3-carboxamide] were, in that order, 0.7 µM and 2.8 µM.
`CCc1nc(-c2ccc3c(c2)CC[C@H]3NC(=O)C2CCC(=O)N(C)C2)no1` (stereo partly drawn) [Compound 352, N-((R)-5-(5-ethyl-1,2,4-oxadiazol-3-yl)-2,3-dihydro-1H-inden-1-yl)-1-methyl-6-oxopiperidine-3-carboxamide]: the “CDMF75 IC15” value was 13.0 µM and the concentration for half-maximal inhibition (IC50) was more than 39.2 µM.
The like results for `Cc1cc(-c2ccc3c(c2)OC[C@H]3NC(=O)c2nnn(C)n2)no1` [Compound 364, (S)-2-methyl-N-(6-(5-methylisoxazol-3-yl)-2,3-dihydrobenzofuran-3-yl)-2H-tetrazole-5-carboxamide] were, in that order, 1.6 µM and 6.8 µM.
The corresponding values for `CCc1nc(-c2ccc3c(c2)CC[C@H]3NC(=O)C2CCCC(=O)N2)no1` (stereo partly drawn) [Compound 354, N-((R)-5-(5-ethyl-1,2,4-oxadiazol-3-yl)-2,3-dihydro-1H-inden-1-yl)-6-oxopiperidine-2-carboxamide] are 34.1 µM and more than 39.2 µM.
The like results for `Cc1nc(-c2ccc3c(c2)CCC3NC(=O)c2conc2C)no1` (centres unmarked) [Compound 89, 3-methyl-N-(5-(5-methyl-1,2,4-oxadiazol-3-yl)-2,3-dihydro-1H-inden-1-yl)isoxazole-4-carboxamide] were, in that order, 1.0 µM and 3.3 µM.
As to `[2H]C([2H])([2H])c1nc(-c2ccc3c(c2)CC[C@H]3NC(=O)c2cnn(C)c2C)no1` [Compound 250, (R)-1,5-dimethyl-N-(5-(5-(methyl-d3)-1,2,4-oxadiazol-3-yl)-2,3-dihydro-1H-inden-1-yl)-1H-pyrazole-4-carboxamide], the “CDMF75 IC15” value amounted to 1.0 µM and the IC50 is 3.6 µM.
The like results for `Cc1nc(-c2ccc3c(c2)OC[C@H]3NC(=O)c2cccc([C@@H](C)O)c2)no1` [Compound 735, 3-((R)-1-hydroxyethyl)-N-((S)-6-(5-methyl-1,2,4-oxadiazol-3-yl)-2,3-dihydrobenzofuran-3-yl)benzamide] were, in that order, 1.6 µM and 8.5 µM.
As for `CCc1nc(-c2ccc3c(c2)CC[C@H]3NC(=O)c2cnn(C3CN(C(C)=O)C3)c2)no1` [Compound 477, (R)-1-(1-acetylazetidin-3-yl)-N-(5-(5-ethyl-1,2,4-oxadiazol-3-yl)-2,3-dihydro-1H-inden-1-yl)-1H-pyrazole-4-carboxamide], the “CDMF75 IC15” value amounted to 8.5 µM and the IC50 was found to be 39.2 µM.
Take `Cc1nc(-c2ccc3c(c2)OC[C@H]3NC(=O)c2ccnc(CO)c2)no1` [Compound 719, (S)-2-(hydroxymethyl)-N-(6-(5-methyl-1,2,4-oxadiazol-3-yl)-2,3-dihydrobenzofuran-3-yl)isonicotinamide]: the “CDMF75 IC15” value turned out to be 0.8 µM and the half-maximal inhibitory concentration (IC50) came out at 3.7 µM.
Turning to `CCc1nc(-c2ccc3c(c2)CC[C@H]3NC(=O)c2cnn(CCOC)c2)no1` [Compound 472, (R)-N-(5-(5-ethyl-1,2,4-oxadiazol-3-yl)-2,3-dihydro-1H-inden-1-yl)-1-(2-methoxyethyl)-1H-pyrazole-4-carboxamide], the “CDMF75 IC15” value was 0.8 µM and the IC50 is 3.1 µM.
`Cc1c(C(=O)N[C@@H]2CCc3cc(-c4noc(C(F)F)n4)ccc32)cnn1CCO` [Compound 675, (R)-N-(5-(5-(difluoromethyl)-1,2,4-oxadiazol-3-yl)-2,3-dihydro-1H-inden-1-yl)-1-(2-hydroxyethyl)-5-methyl-1H-pyrazole-4-carboxamide]: the “CDMF75 IC15” value was found to be 0.8 µM and the half-inhibitory concentration (IC50) turned out to be 2.7 µM.
The like results for `CCc1nc(-c2ccc3c(c2)CC[C@H]3NC(=O)c2coc(C)n2)no1` [Compound 561, (R)-N-(5-(5-ethyl-1,2,4-oxadiazol-3-yl)-2,3-dihydro-1H-inden-1-yl)-2-methyloxazole-4-carboxamide] were, in that order, 1.4 µM and 7 µM.
Take `Cn1nnc(C(=O)N[C@@H]2CCc3cc(-c4nc(C5CC5)no4)ccc32)n1` [Compound 260, (R)-N-(5-(3-cyclopropyl-1,2,4-oxadiazol-5-yl)-2,3-dihydro-1H-inden-1-yl)-2-methyl-2H-tetrazole-5-carboxamide]: the “CDMF75 IC15” value was 0.4 µM and the IC50 turned out to be 1.4 µM.
The like results for `COCCn1cc(C(=O)N[C@@H]2CCc3cc(-c4noc(C)n4)ccc32)cn1` [Compound 509, (R)-1-(2-methoxyethyl)-N-(5-(5-methyl-1,2,4-oxadiazol-3-yl)-2,3-dihydro-1H-inden-1-yl)-1H-pyrazole-4-carboxamide] were, in that order, 3.2 µM and 12.8 µM.
The corresponding values for `Cc1noc(-c2ccc3c(c2)OC[C@H]3NC(=O)c2cnn(C)c2C)n1` [Compound 343, (S)-1,5-dimethyl-N-(6-(3-methyl-1,2,4-oxadiazol-5-yl)-2,3-dihydrobenzofuran-3-yl)-1H-pyrazole-4-carboxamide] are 1.8 µM and 6.6 µM.
The corresponding values for `CCc1nc(-c2ccc3c(c2)CC[C@H]3NC(=O)c2cc(OC)no2)no1` [Compound 635, (R)-N-(5-(5-ethyl-1,2,4-oxadiazol-3-yl)-2,3-dihydro-1H-inden-1-yl)-3-methoxyisoxazole-5-carboxamide] are 0.3 µM and 1.1 µM.
With `CC(=O)N1CC[C@H]1C(=O)N[C@@H]1CCc2cc(-c3noc(C4CC4)n3)ccc21` [Compound 332, (S)-1-acetyl-N-((R)-5-(5-cyclopropyl-1,2,4-oxadiazol-3-yl)-2,3-dihydro-1H-inden-1-yl)azetidine-2-carboxamide], the “CDMF75 IC15” value amounted to 39.2 µM and the IC50 was more than 39.2 µM.
The like results for `Cc1cc(C(=O)N[C@@H]2COc3cc(-c4noc(C(F)F)n4)cnc32)ccn1` [Compound 196, (S)—N-(6-(5-(difluoromethyl)-1,2,4-oxadiazol-3-yl)-2,3-dihydrofuro[3,2-b]pyridin-3-yl)-2-methylisonicotinamide] were, in that order, 4.5 µM and 17.4 µM.
Turning to `COCc1nc(-c2ccc3c(c2)OC[C@H]3NC(=O)c2ccnc(CO)c2)no1` [Compound 714, (S)-2-(hydroxymethyl)-N-(6-(5-(methoxymethyl)-1,2,4-oxadiazol-3-yl)-2,3-dihydrobenzofuran-3-yl)isonicotinamide], the “CDMF75 IC15” value was 1.4 µM and the IC50 was 5.5 µM.
For the molecule `COC(=O)c1nc(-c2ccc3c(c2)CCC3NC(=O)c2cn(C)nc2C)no1` (centres unmarked) [Compound 78, methyl 3-(1-(1,3-dimethyl-1H-pyrazole-4-carboxamido)-2,3-dihydro-1H-inden-5-yl)-1,2,4-oxadiazole-5-carboxylate], the “CDMF75 IC15” value was found to be 2.6 µM and the IC50 stood at 13.6 µM.
Consider `CCOC(=O)N[C@@H]1CCc2cc(-c3noc(C(F)F)n3)ccc21` [Compound 278, ethyl (R)-(5-(5-(difluoromethyl)-1,2,4-oxadiazol-3-yl)-2,3-dihydro-1H-inden-1-yl)carbamate], for which the “CDMF75 IC15” value was found to be 1.3 µM and the half-inhibitory concentration (IC50) was 5.2 µM.
The like results for `CCc1nc(-c2ccc3c(c2)CC[C@H]3NC(=O)[C@H]2COCCN2)no1` [Compound 356, (R)-N-((R)-5-(5-ethyl-1,2,4-oxadiazol-3-yl)-2,3-dihydro-1H-inden-1-yl)morpholine-3-carboxamide] were, in that order, 13.4 µM and more than 39.2 µM.
As to `CCc1nc(-c2ccc3c(c2)CC[C@H]3NC(=O)c2cnn(CC3(F)COC3)c2)no1` [Compound 508, (R)-N-(5-(5-ethyl-1,2,4-oxadiazol-3-yl)-2,3-dihydro-1H-inden-1-yl)-1-((3-fluorooxetan-3-yl)methyl)-1H-pyrazole-4-carboxamide], the “CDMF75 IC15” value amounted to 2.6 µM and the half-maximal inhibitory concentration (IC50) was 11.3 µM.
The corresponding values for `Cc1cc(-c2ccc3c(c2)OC[C@H]3NC(=O)c2cnc(C)o2)no1` [Compound 428, (S)-2-methyl-N-(6-(5-methylisoxazol-3-yl)-2,3-dihydrobenzofuran-3-yl)oxazole-5-carboxamide] are 1.0 µM and 3.4 µM.
With `CCc1nc(-c2ccc3c(c2)CC[C@H]3NC(=O)c2coc(COC)n2)no1` [Compound 467, (R)-N-(5-(5-ethyl-1,2,4-oxadiazol-3-yl)-2,3-dihydro-1H-inden-1-yl)-2-(methoxymethyl)oxazole-4-carboxamide], the “CDMF75 IC15” value was 2.1 µM and the IC50 worked out at 8.4 µM.
